# In US7365069B2, “Pyrimidone derivatives” (Bexel Pharmaceuticals Inc., priority 2002, dated 2008):
# Columns and labels:
# TNF-α = TNF-α production in LPS-stimulated human whole blood; assay type: cell-based; settings: LPS 4 h
# In short: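 Human whole blood pre-incubated with compound 15 min at 37° C., then stimulated with LPS (Salmonella abortus equi, 1 μg/ml) for 4 h at 37° C. in 5% CO2. TNF-α quantified by ELISA.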
# Male Wistar rats [1] = assay: Gastroulcerogenic potential (stomach lesions after the paw edema test); assay type: in vivo; settings: 10 mg/kg body weight, oral, rat
# Protocol: (§1) The carrageenan paw edema test is performed as described by Winter et al (Proc. Soc. Exp. Biol. Med, 111, 544, 1962). Male Wistar rats are selected and the body weights are equivalent within each group. The rats are fasted for eighteen hours with free access to water. The rats are dosed orally with the test compound suspended in vehicle containing 0.5% methylcellulose. The control rats are administered the vehicle alone. After an hour, the rats are injected with 0.1 ml of 1% Carrageenan solution in 0.9% saline into the sub-plantar surface of the right hind paw. Paw volume is measured using water plethysmograph before and after 3 hours of carrageenan injection. The average of foot swelling in drug treated animals is compared with that of control animals. Anti-inflammatory activity is expressed as the percentage inhibition of edema compared with control group [Arzneim-Forsch/Drug Res., 43(I), 1, 44-50,1993; Ottemess and Bliven, Laboratory Models for Testing NSAIDs, In Non-Steroidal Anti-Inflammatory Drugs, (J. Lombardino, ed. 1985)]. In order to evaluate their role on the ulcer formation, the animals are sacrificed and the stomach is taken out and flushed with 1% formalin. The stomach is opened along the greater curvature. The haemorrhagic puncta and sulci are identified microscopically and images are captured. The stomach lesions are calculated.
# COX-2 = molecular target: T1, COX-2 (Homo sapiens, UniProt P35354); assay: Human whole blood assay, COX-2 inhibition (PGE2 ELISA after LPS); assay type: cell-based; settings: LPS 24 h
# T1 construct: incubation of human blood with lipopolysaccharide (LPS), which induces COX-2 production in the blood; endogenous in cells; host or cells: fresh human whole blood from volunteers, treated with aspirin and then LPS
# T1 sequence (P35354 18-604): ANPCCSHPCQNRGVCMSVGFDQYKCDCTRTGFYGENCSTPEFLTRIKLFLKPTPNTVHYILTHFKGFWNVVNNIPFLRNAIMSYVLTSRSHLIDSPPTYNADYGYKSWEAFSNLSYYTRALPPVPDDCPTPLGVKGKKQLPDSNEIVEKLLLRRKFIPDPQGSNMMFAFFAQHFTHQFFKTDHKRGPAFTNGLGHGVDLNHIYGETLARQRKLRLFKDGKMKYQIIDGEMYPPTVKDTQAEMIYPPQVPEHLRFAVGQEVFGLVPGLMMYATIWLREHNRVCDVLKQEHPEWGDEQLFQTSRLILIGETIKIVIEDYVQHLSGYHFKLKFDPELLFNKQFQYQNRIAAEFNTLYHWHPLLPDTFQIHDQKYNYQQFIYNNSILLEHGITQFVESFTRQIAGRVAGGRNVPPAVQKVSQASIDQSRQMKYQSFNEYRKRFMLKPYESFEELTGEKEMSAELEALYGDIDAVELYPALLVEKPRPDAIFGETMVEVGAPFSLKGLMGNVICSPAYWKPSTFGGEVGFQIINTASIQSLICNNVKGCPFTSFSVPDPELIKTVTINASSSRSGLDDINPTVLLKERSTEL
# In short: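 Fresh EDTA blood from healthy male donors was given aspirin (10 μg/ml) to inactivate COX-1. LPS (10 μg/ml) was then added together with test agent or vehicle, and the blood was incubated 24 h at 37° C. Plasma PGE2 was measured by ELISA.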
# IL-6 = IL-6 production in LPS-stimulated human whole blood; assay type: cell-based; settings: LPS 4 h
# Protocol: This assay determines the effect of test compounds on the production of IL-6 from human whole blood. Compounds are tested for their ability to downregulate the production of IL-6 in activated whole blood. The test compounds are pre-incubated for 15 minutes at 37° C. and then stimulated with Lipopolysaccharide (Salmonella abortus equi, 1 μg/ml) for 4 h at 37° C. in 5% CO2. The levels of Interleukin-6 are estimated using Enzyme linked Immunosorbent assay performed in a 96 well format as per the procedure of the manufacturer (Cayman Chemical, Ann Arbor, USA).
# Male Wistar rats [2] = assay: Rat carrageenan paw edema test; assay type: in vivo; settings: 10 mg/kg body weight, oral, paw volume 3 hours after carrageenan, read-out: Rat Paw Edema model % inhibition
# Protocol: Rat Carrageenan Paw Edema Test
# as §1
# NCI-H460 = assay: DTP human tumor cell line one-dose prescreen, NCI-H460; assay type: cell-based; settings: 48 hours, Alamar Blue, test/control, read-out: Percentage growth Lung NCI-H460
# MCF-7 = assay: DTP human tumor cell line one-dose prescreen, MCF-7; assay type: cell-based; settings: MCF7, 48 hours, Alamar Blue, test/control, read-out: Percentage growth Breast MCF-7
# SF-268 = assay: DTP human tumor cell line one-dose prescreen, SF-268; assay type: cell-based; settings: 48 hours, Alamar Blue, test/control, read-out: Percentage growth CNS SF-268
SMILES,Gastroulcerogenic potential (% incidence of ulceration) (Male Wistar rats [1]) [%],melting point [°C],inhibition in vivo at 10 mg/kg (Male Wistar rats [2]) [%],inhibition at 0.25 µM (IL-6) [%],activity at 50 µM (NCI-H460) [%],activity at 50 µM (MCF-7) [%],also measured
"CSc1ccc(-n2c(-c3ccc(Cl)cc3)nc(SC)c(C#N)c2=O)cc1 [Example 1, 5-cyano-2-(4-chlorophenyl)-4-(methylthio)-1-[4-(methylthio)phenyl]-6-oxo-1,6-dihydropyrimidine]",75,206 to 207,29,–,–,–,inhibition at 0.1 µM (TNF-α; 0.1 μM): 56.9%; inhibition at 10 µM (COX-2): 13%; inhibition at 0.1 µM (IL-6; 0.1 μM): 52.8%
"CSc1ccc(-n2c(-c3ccc(F)cc3)nc(SC)c(C#N)c2=O)cc1 [Example 2, 5-cyano-2-(4-fluorophenyl)-4-(methylthio)-1-[4-(methylthio)phenyl]-6-oxo-1,6-dihydropyrimidine]",25,204 to 207,39,45,–,–,inhibition at 1 µM (COX-2): 53.4%
CSc1ccc(-n2c(-c3ccc(C(F)(F)F)cc3)nc(SC)c(C#N)c2=O)cc1 [Example 4],25,228 to 229,38.5,48.4,–,–,inhibition at 10 µM (COX-2): 50.1%
"CSc1ccc(-c2nc(SC)c(C#N)c(=O)n2-c2ccc(F)cc2)cc1 [Example 5, 5-cyano-2-[(4-methylthio)phenyl]-4-(methylthio)-1-[4-fluorophenyl]-6-oxo-1,6-dihydropyrimidine]",37.5,219 to 221,13.3,51,–,–,inhibition at 1 µM (COX-2): 40.5%
"CSc1ccc(-c2nc(SC)c(C#N)c(=O)n2-c2ccc(C)cc2)cc1 [Example 6, 5-cyano-1-(4-methylphenyl)-4-(methylthio)-2-[4-(methylthio)phenyl]-6-oxo-1,6-dihydropyrimidine]",25,196 to 198,40.2,41.4,–,–,inhibition at 1 µM (TNF-α): 28.8%; inhibition at 1 µM (COX-2): 55.7%
"CSc1nc(-c2ccc(S(C)(=O)=O)cc2)n(-c2ccc(C)cc2)c(=O)c1C#N [Example 7, 5-cyano-2-[(4-methylsulphonyl)phenyl]-4-(methylthio)-1-(4-methylphenyl)-6-oxo-1,6-dihydropyrimidine]",25,242 to 244,28.1,–,–,–,inhibition at 0.25 µM (COX-2; 0.25 μM): 31.7%; inhibition at 1 µM (IL-6): 37.1%
"CSc1ccc(-c2nc(SC)c(C#N)c(=O)n2-c2ccc(C(C)C)cc2)cc1 [Example 9, 5-cyano-1-(4-isopropylphenyl)-4-(methylthio)-2-[4-(methylthio)phenyl]-6-oxo-1,6-dihydropyrimidine]",0,180 to 181,37.2,31.1,–,–,–
"CSc1ccc(-c2nc(SC)c(C#N)c(=O)n2-c2ccc(C)c(C)c2)cc1 [Example 10, 5-cyano-1-(3,4-dimethylphenyl)-4-(methylthio)-2-[4-(methylthio)phenyl]-6-oxo-1,6-dihydropyrimidine]",0,234 to 236,68.6,–,–,–,inhibition at 10 µM (TNF-α; 10 μM): 26.4%; inhibition at 0.1 µM (COX-2; 0.1 μM): 62.8%; inhibition at 1 µM (IL-6): 48.6%
"CSc1ccc(-c2nc(SC)c(C#N)c(=O)n2-c2ccc(C(C)(C)C)cc2)cc1 [Example 22, 1-(4-tert-butylphenyl)-5-cyano-4-(methylthio)-2-[4-(methylthio)phenyl]-6-oxo-1,6-dihydropyrimidine]",–,233 to 236,–,–,80,83,inhibition at 1 µM (TNF-α): 62.7%; inhibition at 1 µM (IL-6): 66.3%
"CNc1nc(-c2ccc(F)cc2)n(-c2ccc(S(C)(=O)=O)cc2)c(=O)c1C(N)=O [Example 49, 5-carboxamido-2-(4-fluorophenyl)-4-(methylamino)-1-[4-(methylsulfonyl)phenyl]-6-oxo-1,6-dihydropyrimidine]",–,> 300,–,–,72,79,activity at 50 µM (SF-268): 88%
"CS(=O)(=O)c1ccc(-n2c(-c3ccc(F)cc3)nc(N3CCOCC3)c(C(N)=O)c2=O)cc1 [Example 50, 5-carboxamido-2-(4-fluorophenyl)-1-[4-(methylsulfonyl)phenyl]-4-morpholin-4-yl-6-oxo-1,6-dihydropyrimidine]",–,255 to 258,–,–,94,92,activity at 50 µM (SF-268): 97%
"CNc1nc(-c2ccc(F)cc2)n(-c2ccc(SC)cc2)c(=O)c1C#N [Example 56, 5-cyano-2-(4-fluorophenyl)-4-(methylamino)-1-[4-(methylthio)phenyl]-6-oxo-1,6-dihydropyrimidine]",–,219 to 222,–,–,54,63,activity at 50 µM (SF-268): 87%
